# Results: patent US12667547B2 (MESHABERASE, LLC, priority 2013, dated 2026)
# Entries after “also recorded” stand apart in the source; their conditions may differ. Read-outs that look alike come from different tables or passages of the source.
# Key:
# [1] = cited from earlier work
# [2] = system: pancreatic cancer cell lines; experiment: Matrigel invasion assay; assay type: cell-based, human
# Method: Matrigel invasion assay: Cell invasion was assayed in BD BioCoat Matrigel invasion chambers (BD Biosciences; 24 wells, 8 μm pore size) as described previously (26). […] Non-invaded cells were removed from the upper surface of the membrane with a cotton swab, and cells on the lower surface of the membrane were fixed and stained with H&E. Three random fields per chamber were counted. Data were shown as mean±S.D. of triplicate determinations. […] For this assay, ten different pancreatic cancer cell lines in a matrigel invasion chamber were used.
# [3] = system: pancreatic cancer cell lines; experiment: Cell migration assay (wound healing); assay type: cell-based, human
# Method: Cell Migration Assay: Cell migration assay is a classical wound healing assay (25). For this assay, cells were cultured in 10 cm petri dishes until they were completely confluent. […] Five random fields were selected and pictures were taken using an inverted microscope. The average area (mm 2) of the gap between the cell layers was calculated using IPLab imaging software (BD Biosciences-Bioimaging, Rockville, MD). […] For the migration assay, a wound healing assay was used (described above in Example 1).
# MMP-14 [4] = experiment: qRT-PCR of MMP-14 mRNA in pancreatic cancer cell lines; assay type: cell-based, human; conditions: highest concentration, in vitro
# Method: (§1) Quantitative Reverse transcription-PCR (qRT-PCR): qRT-PCR was performed as described previously using QuantiTect SYBR Green PCR Kits (QIAGEN, Valencia, CA) (28). Gene specific primers for human MMP-9, MMP-12, MMP-14 and I3-actin were either purchased from QIAGEN or synthesized at the CBER core facility. Gene expression was normalized to β-actin before the fold change in gene expression was determined.
# (§2) Since MMP-9 plays a central role in pancreatic cancer invasion, MMP-9 mRNA and protein levels were examined in both cell lines.
# MMP-9 [5] = experiment: qRT-PCR of MMP-9 mRNA in primary orthotopic tumors; assay type: in vivo, mice; conditions: tumors harvested day 30
# Method: as §1
# MMP-9 [6] = experiment: qRT-PCR of MMP-9 mRNA in pancreatic cancer cell lines; assay type: cell-based, human; conditions: highest concentration (5 mM), both cell lines
# Method: as §1, §2
# MMP-1 = target: T1, MMP-1 (Homo sapiens, UniProt P03956); experiment: MMP profiling, IC50 (fluorimetric MMP inhibitor profiling kit); assay type: biochemical
# T1 construct: purchased Enzo Life Science, Farmingdale, NY
# Method: (§3) After administration of fluorogenic substrate, a velocity of fluorescent increase was measured using excitation/emission=320/405 nm.
# MMP-12 [7] = target: T2, MMP-12 (Homo sapiens, UniProt P39900); experiment: as above; assay type: biochemical
# T2 construct: purchased Enzo Life Science, Farmingdale, NY
# Method: as §3
# MMP-14 [8] = target: T3, MMP-14 (Homo sapiens, UniProt P50281); experiment: as above; assay type: biochemical
# T3 construct: purchased Enzo Life Science, Farmingdale, NY
# Method: as §3
# MMP-2 = target: T4, MMP-2 (Homo sapiens, UniProt P08253); experiment: as above; assay type: biochemical
# T4 construct: purchased Enzo Life Science, Farmingdale, NY
# Method: as §3
# MMP-10 = target: T5, MMP-10 (Homo sapiens, UniProt P09238); experiment: as above; assay type: biochemical
# T5 construct: purchased Enzo Life Science, Farmingdale, NY
# Method: as §3
# MMP-7 = target: T6, MMP-7 (Homo sapiens, UniProt P09237); experiment: as above; assay type: biochemical
# T6 construct: purchased Enzo Life Science, Farmingdale, NY
# Method: as §3
# MMP-8 = target: T7, MMP-8 (Homo sapiens, UniProt P22894); experiment: as above; assay type: biochemical
# T7 construct: purchased Enzo Life Science, Farmingdale, NY
# Method: as §3
# MMP-3 = target: T8, MMP-3 (Homo sapiens, UniProt P08254); experiment: as above; assay type: biochemical
# T8 construct: purchased Enzo Life Science, Farmingdale, NY
# Method: as §3
# MMP-9 [9] = target: T9, MMP-9 (Homo sapiens, UniProt P14780); experiment: as above; assay type: biochemical
# T9 construct: purchased Enzo Life Science, Farmingdale, NY
# Method: as §3
# MMP-13 = target: T10, MMP-13 (Homo sapiens, UniProt P45452); experiment: as above; assay type: biochemical
# T10 construct: purchased Enzo Life Science, Farmingdale, NY
# Method: as §3
# intracellular cystine = conditions: cited from earlier work
# MMP-9 [10] = experiment: Zymography for MMP-9 in primary orthotopic tumors; assay type: in vivo, mice; conditions: tumors harvested day 30
# Method: (§4) Briefly, 50 μg of total protein was electrophoresed on 10% SDS-PAGE containing 0.1% gelatin as substrate. After washing with 1% Triton X-100 in 50 mM Tris/HCl, pH 7.5 for 1 hr to remove SDS, the gels were incubated overnight at 37° C. in 50 mM Tris/HCl, pH 7.5, containing 150 mM NaCl, 10 mM CaCl2 and 0.1% Triton X-100, prior to staining with simply blue safe stain. The gels were washed with deionized water at room temperature. […] Relevant band intensities were quantified by scanning densitometric analysis and normalized to cell number.
# MMP-9 [11] = experiment: Gelatin gel zymography of cell lysates; assay type: cell-based, human; conditions: cell lines in vitro, dose dependent
# Method: as §4, §2
# [12] = cited from earlier work; remark: listed apart in the source
# MMP-9 [13] = experiment: ELISA of MMP-9 protein in pancreatic cancer cell lines; assay type: cell-based, human; conditions: highest concentration (5 mM), both cell lines
# Method: Enzyme-Linked ImmunoSorbent Assay (ELISA): The NIMP-9 protein level was determined using Human total MMP-9 DuoSet kit (R&D systems, Emeryville, CA) following the manufacturer's instruction. Ten microgram of total protein was aliquoted in each well and the MMP-9 concentration was determined by the colorimetric method. […] Since MMP-9 plays a central role in pancreatic cancer invasion, MMP-9 mRNA and protein levels were examined in both cell lines.
# MMPs [14] = system: T11, MMPs; experiment: MMP profiling, summary over the whole MMP panel; assay type: biochemical
# T11 construct: rows headed: anti-MMP activity, IC50 range
# Method: as §3, §2
# MMPs [15] = system: T12, MMPs; experiment: MMP profiling, summary over the whole MMP panel; assay type: biochemical; conditions: MMP-1 to MMP-14 of Table 1; read-out: IC50 against each MMP enzymatic activity (span over the panel)
# T12 construct: rows headed: IC50 against each MMP enzymatic activity (span over the panel)
# Method: as §3, §2
# H5766T tumor = experiment: Orthotopic pancreatic cancer mouse model: metastasis, ascites, survival; assay type: in vivo, mice
# Method: (§5) Measurement of metastasis, survival and body weight of animals implanted with orthotopic pancreatic cancer in mouse model: Female nude nu/nu mice between ages 5 and 6 weeks were maintained in a barrier facility in HEPA-filtered rack. All animal studies were conducted under approved protocol #2000-06 by the CBER Institutional Animal Care and Use Committee in accordance with the principles and procedures outlined in the NIH Guideline for the Care and Use of Laboratory Animals. For orthotopic tumor cell injection, the pancreas was carefully exposed, and 2.0×10^6 of MIA-PaCa2 and H5766T cells were injected into the organ. The pancreas was then returned to the peritoneal cavity, and the abdominal wall and skin were closed with skin clips (29, 30). […] At day 30, mice were sacrificed and the number of metastatic nodules visible by naked eye and whose sizes were >5 mm in diameter counted. The total weight of primary tumor and metastatic nodules were also measured. Pictures were taken immediately after sacrificing the animals. Additionally, mouse survival time was monitored in an independent experiment. Mice were sacrificed when they had severe ascites or cachexia.
# (§6) At day 30, the number and weight of the primary tumor and metastatic nodules were measured. […] The survival of mice among different treatment groups was also determined.
# MIA-PaCa2 tumor = experiment: as above; assay type: in vivo, mice
# Method: as §5, §6
# MMPs [16] = experiment: MMP activity in pancreatic cancer cell lines (fluorogenic peptide substrate); assay type: cell-based, human; conditions: two representative cell lines, concentration-dependent
# Method: (§7) Measurement of MMP activity: MMPs activity was measured by Mca-KPLGL-Dpa-AR-NH2 Fluorogenic Peptide Substrate (R&D systems, Emeryville, CA). Total cell protein from each pancreatic cancer cell line was collected using lysis buffer (containing 50 mM Tris-HCl, 10 mM CaCl2, 0.05% Brij35 and 0.25% Triton-X) without an MMP inhibitor. Substrate and 10 μg of total cell protein in the buffer were mixed in a black-wall 96-well plate. After 1 hour incubation, fluorescence units were determined using excitation/emission=320/405 nm.
# MMP-9 [17] = experiment: ELISA of MMP-9 protein in primary orthotopic tumors; assay type: in vivo, mice; conditions: tumors harvested day 30
# Method: Enzyme-Linked ImmunoSorbent Assay (ELISA): The NIMP-9 protein level was determined using Human total MMP-9 DuoSet kit (R&D systems, Emeryville, CA) following the manufacturer's instruction. Ten microgram of total protein was aliquoted in each well and the MMP-9 concentration was determined by the colorimetric method.
# MMP-12 [18] = experiment: qRT-PCR of MMP-12 mRNA in pancreatic cancer cell lines; assay type: cell-based, human; conditions: highest concentration, in vitro
# Method: as §1, §2
# [19] = General condition, body weight, serum enzymes and histology of treated tumor-bearing mice; assay type: in vivo
# Method: as §5
# Measurement of enzymes in mouse serum: Mouse blood was collected from the tail vein. Serum levels of alanine aminotransferase (ALT), creatine kinase (CK), aldolase and creatinine (Cr) were measured using different kits obtained from Pointe Scientific, Inc. (Canton, MI) and Caldon Biotech, Inc. (Vista, Ca), following the manufacturer's instruction.
# The general condition and body weight of mice throughout the experimental period was also monitored. […] Similarly, there was no alteration in serum enzymes representing liver function (ALT) or muscle damage (Aldolase) nor evidence of skeletal muscle damage or kidney function (creatinine kinase and creatinine) in the cysteamine-treated groups.
# MMPs [20] = experiment: MMP activity in primary orthotopic tumors; assay type: in vivo, mice; conditions: H5766T and MIA-PaCa2 tumors, 100 and 250 mg/Kg, day 30
# Method: as §7
# [21] = in vivo; cited from earlier work
# MMPs [22] = conditions: not tested in Table 1; cited from earlier work
# [23] = delivery to the small intestine (WO 2007/089670)
# T9 sequence (P14780 94-707): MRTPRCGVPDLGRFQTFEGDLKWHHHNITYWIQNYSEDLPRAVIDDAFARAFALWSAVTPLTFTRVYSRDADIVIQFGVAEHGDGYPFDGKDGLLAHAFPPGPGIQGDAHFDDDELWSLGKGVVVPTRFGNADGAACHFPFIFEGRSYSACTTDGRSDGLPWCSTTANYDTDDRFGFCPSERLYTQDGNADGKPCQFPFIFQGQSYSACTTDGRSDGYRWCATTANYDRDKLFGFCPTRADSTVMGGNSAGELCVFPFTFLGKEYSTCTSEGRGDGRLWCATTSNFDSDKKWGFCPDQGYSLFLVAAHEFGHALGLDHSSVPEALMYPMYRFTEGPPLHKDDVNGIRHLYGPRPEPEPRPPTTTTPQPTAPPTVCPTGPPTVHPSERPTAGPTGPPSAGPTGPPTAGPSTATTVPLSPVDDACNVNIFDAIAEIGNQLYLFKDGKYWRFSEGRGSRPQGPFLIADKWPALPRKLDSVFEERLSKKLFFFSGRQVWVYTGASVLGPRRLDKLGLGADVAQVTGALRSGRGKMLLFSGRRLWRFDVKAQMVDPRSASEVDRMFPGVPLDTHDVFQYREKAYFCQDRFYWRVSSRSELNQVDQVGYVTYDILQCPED
# T7 sequence (P22894 101-467): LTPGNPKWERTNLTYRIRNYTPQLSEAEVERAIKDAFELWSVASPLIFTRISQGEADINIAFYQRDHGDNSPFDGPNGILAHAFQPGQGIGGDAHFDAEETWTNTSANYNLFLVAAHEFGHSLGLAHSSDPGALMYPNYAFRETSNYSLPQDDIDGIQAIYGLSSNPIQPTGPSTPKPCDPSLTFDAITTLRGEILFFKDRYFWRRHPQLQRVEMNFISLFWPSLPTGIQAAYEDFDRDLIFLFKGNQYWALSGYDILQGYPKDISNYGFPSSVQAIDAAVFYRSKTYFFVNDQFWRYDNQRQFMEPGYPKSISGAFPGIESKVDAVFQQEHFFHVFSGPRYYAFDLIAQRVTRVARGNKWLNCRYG
# T1 sequence (P03956 100-469): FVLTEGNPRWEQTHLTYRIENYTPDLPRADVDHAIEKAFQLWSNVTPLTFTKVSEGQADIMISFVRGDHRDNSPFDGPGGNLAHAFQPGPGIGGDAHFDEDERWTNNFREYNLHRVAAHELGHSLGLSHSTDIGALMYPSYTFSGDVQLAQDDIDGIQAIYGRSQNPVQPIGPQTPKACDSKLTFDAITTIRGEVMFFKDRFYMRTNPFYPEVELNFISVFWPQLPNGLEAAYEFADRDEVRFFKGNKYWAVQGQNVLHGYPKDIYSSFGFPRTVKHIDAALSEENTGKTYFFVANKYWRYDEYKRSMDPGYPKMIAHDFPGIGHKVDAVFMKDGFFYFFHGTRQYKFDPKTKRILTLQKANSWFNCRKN
# T8 sequence (P08254 100-477): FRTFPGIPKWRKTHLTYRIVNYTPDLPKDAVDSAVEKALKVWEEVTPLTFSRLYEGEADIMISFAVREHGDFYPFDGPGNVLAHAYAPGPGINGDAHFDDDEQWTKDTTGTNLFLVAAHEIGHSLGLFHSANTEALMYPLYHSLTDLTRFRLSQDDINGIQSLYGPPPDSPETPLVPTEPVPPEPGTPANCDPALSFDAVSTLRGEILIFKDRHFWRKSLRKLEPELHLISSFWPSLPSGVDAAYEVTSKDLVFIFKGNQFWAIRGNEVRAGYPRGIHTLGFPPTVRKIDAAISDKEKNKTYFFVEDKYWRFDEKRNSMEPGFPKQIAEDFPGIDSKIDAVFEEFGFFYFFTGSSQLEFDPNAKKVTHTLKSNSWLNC
# T5 sequence (P09238 99-476): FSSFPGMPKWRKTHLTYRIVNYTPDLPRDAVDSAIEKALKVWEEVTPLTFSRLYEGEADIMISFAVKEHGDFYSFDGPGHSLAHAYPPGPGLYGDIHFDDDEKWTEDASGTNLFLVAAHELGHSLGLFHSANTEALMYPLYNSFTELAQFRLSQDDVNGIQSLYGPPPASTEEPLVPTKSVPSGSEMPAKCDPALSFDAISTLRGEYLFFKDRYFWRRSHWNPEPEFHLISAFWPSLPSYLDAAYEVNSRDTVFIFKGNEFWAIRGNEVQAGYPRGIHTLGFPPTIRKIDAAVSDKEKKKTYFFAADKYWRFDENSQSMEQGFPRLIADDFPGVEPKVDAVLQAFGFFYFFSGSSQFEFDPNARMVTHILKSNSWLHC
# T2 sequence (P39900 106-470): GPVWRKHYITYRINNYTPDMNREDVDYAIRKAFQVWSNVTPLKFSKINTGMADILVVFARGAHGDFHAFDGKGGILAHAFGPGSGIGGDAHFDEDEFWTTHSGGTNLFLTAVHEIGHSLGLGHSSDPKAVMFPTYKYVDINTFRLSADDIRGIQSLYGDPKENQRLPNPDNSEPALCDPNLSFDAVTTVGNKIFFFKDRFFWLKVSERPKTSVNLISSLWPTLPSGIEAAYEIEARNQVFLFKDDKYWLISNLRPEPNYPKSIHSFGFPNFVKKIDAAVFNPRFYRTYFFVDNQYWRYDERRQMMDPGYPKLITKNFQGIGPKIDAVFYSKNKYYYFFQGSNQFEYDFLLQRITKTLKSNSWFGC
# T6 sequence (P09237 95-267): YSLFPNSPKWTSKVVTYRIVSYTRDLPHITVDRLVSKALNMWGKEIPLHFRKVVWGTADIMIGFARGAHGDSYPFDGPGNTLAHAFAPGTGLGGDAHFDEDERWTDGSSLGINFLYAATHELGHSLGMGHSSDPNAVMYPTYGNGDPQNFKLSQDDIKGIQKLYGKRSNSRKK
# T4 sequence (P08253 110-660): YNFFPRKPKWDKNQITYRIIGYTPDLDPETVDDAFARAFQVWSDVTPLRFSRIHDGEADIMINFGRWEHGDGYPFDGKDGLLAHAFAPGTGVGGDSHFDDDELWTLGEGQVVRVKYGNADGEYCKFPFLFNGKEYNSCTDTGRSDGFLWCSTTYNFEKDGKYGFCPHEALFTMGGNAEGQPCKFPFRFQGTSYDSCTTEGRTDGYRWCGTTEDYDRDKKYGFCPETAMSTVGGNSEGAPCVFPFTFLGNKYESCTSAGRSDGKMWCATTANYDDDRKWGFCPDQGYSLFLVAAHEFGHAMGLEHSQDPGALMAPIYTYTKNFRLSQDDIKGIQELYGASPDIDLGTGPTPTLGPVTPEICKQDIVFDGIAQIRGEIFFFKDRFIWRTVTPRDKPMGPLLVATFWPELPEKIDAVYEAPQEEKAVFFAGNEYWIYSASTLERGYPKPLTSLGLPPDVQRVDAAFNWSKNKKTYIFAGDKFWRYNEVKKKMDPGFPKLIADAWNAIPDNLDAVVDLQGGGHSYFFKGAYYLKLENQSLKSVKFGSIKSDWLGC
compound,measurement,setting,value
CNC(=O)[C@H](Cc1ccccc1)NC(=O)[C@H](CC(C)C)[C@H](CSc1cccs1)C(=O)NO [Batimastat],oral bioavailability,"[1]; in vivo, po",poor oral bioavailability
NCCS [Cysteamine],lowest concentration that significantly inhibited cell invasion,"[2]; all ten pancreatic cancer cell lines, 24 hours",0.05 mM
same,concentration that sufficiently inhibited cancer cell invasion in vitro,[2]; discussion,50 µM
same,concentration at which cell migration was significantly inhibited,"[3]; all ten cell lines, 24 hours",≥ 0.05 mM
same,concentration that sufficiently inhibited cancer cell migration in vitro,[3]; discussion,50 µM
same,mRNA of MMP-14,MMP-14 [4],modest increase; also recorded: modestly upregulated
same,mRNA level of MMP-9 in primary tumors,MMP-9 [5],did not affect
same,mRNA level of MMP-9,MMP-9 [6],modestly increased; also recorded: modestly to moderately upregulated
same,IC50,MMP-1,290 µM
same,IC50,MMP-12 [7],60 µM
same,IC50,MMP-14 [8],91 µM
same,IC50,MMP-2,38 µM
same,IC50,MMP-10,310 µM
same,IC50,MMP-7,40 µM
same,IC50,MMP-8,240 µM
same,IC50,MMP-3,330 µM
same,IC50,MMP-9 [9],200 µM
same,IC50,MMP-13,460 µM
same,time to decrease in leukocyte cystine,intracellular cystine; [23],within an hour
same,depletion of intracellular cystine,"intracellular cystine; taken regularly, circulating white blood cells",up to 90%
same,"gelatinase activity, zymography for MMP-9, primary tumors",MMP-9 [10],dose dependent decrease
same,"zymographic gelatin hydrolyzing activity, pro and active MMP-9",MMP-9 [11],decreased significantly; also recorded: dose dependent decrease
same,AUC,[12]; [23],increases AUC
same,cysteamine plasma level,"[12]; oral, every 6 hours, 60 to 90 mg/kg of body weight per day",≤ 50 µM
same,protein level of MMP-9,MMP-9 [13],modestly increased; also recorded: modestly to moderately upregulated
same,"anti-MMP activity, IC50 range",MMPs [14],high μM range
same,IC50,MMPs [15],38 to 460 µM
same,mouse survival time,"H5766T tumor; 100 mg/kg/day, FIG. 1A",significantly prolonged
same,decrease in number of metastases,"H5766T tumor; 250 mg/kg/day s.c., day 30",~90%
same,number of metastases,"H5766T tumor; 250 mg/kg/day s.c., day 30 (control 34)",3.6
same,ascites in peritoneal cavity,H5766T tumor; 100 and 250 mg/kg/day,no mice developed ascites
same,number of metastatic nodules,"H5766T tumor; dose-dependent, day 30",significantly decreased
same,size and weight of the primary tumor vs control,"H5766T tumor; s.c. twice daily from day 4, day 30",did not show any difference
same,mouse survival time,"MIA-PaCa2 tumor; MIA-PaCa2, 100 mg/kg/day, FIG. 1B",significantly prolonged
same,ascites in peritoneal cavity,"MIA-PaCa2 tumor; MIA-PaCa2, 100 and 250 mg/kg/day",no mice developed ascites
same,number of metastatic nodules,"MIA-PaCa2 tumor; MIA-PaCa2, dose-dependent, day 30",significantly decreased
same,decrease in total weight of metastatic nodules,"MIA-PaCa2 tumor; MIA-PaCa2, highest dose (250 mg/kg/day), day 30",~90%
same,size and weight of the primary tumor vs control,"MIA-PaCa2 tumor; MIA-PaCa2, s.c. twice daily from day 4, day 30",did not show any difference
same,MMP activity in pancreatic cancer cell lines,MMPs [16],inhibited
same,protein level of MMP-9 in primary tumors,MMP-9 [17],did not affect
same,mRNA of MMP-12,MMP-12 [18],modest increase; also recorded: modestly upregulated
same,"dose tolerated without visible, biochemical or histological evidence of toxicity",[19]; mice,up to 250 mg/kg/day
same,organ toxicity by histological examination,"[19]; mouse, in vivo",no organ toxicity
same,serum ALT (liver function),"[19]; mouse, in vivo",no alteration
same,serum Aldolase (muscle damage),"[19]; mouse, in vivo",no alteration
same,serum creatinine (kidney function),"[19]; mouse, in vivo",no alteration
same,serum creatinine kinase,"[19]; mouse, in vivo",no alteration
same,"adverse effects (general appearance, body weight, muscle damage, serum enzymes, serum creatinine)","[19]; mouse, in vivo, 250 mg/kg/day",no adverse effects
same,MMPs activity in primary orthotopic tumors,MMPs [20],decreased
same,adverse effects in subjects,[21],only gastrointestinal symptoms
CNC(=O)[C@@H](NC(=O)[C@H](CC(C)C)[C@H](O)C(=O)NO)C(C)(C)C [marimastat],"anti-MMP activity, IC50 range",MMPs [22],nM to low μM
same,clinical toxicity,"[1]; higher dosage, patients with breast cancer metastasis",high musculoskeletal toxicities
